Reference: US20090170131A1, “Agents for Imaging Apoptosis” (priority 2006, published 2009)

Assays:
[1] = molecular target: T1, caspase-3 (Homo sapiens, UniProt P42574); assay: AMC-M808 cleavage in DLD1 colon carcinoma cells after TRAIL treatment, time-lapse confocal fluorescence; format: cell-based
T1 construct: In DLD1 colon carcinoma cells in vitro; endogenous in cells; host or cells: DLD1 colon carcinoma cells
T1 sequence (P42574 29-175 limits assumed): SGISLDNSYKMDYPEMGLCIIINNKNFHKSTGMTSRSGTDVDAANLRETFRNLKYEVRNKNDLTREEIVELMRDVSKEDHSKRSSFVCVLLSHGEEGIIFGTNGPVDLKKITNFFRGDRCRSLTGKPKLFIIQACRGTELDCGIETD
T1 sequence (P42574 176-277 limits assumed): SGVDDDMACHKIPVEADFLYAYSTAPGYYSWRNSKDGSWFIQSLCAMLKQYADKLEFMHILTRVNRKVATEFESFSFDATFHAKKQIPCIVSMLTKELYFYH
Experimental: FIG. 1 is an image of AMC fluorescence from an imaging agent in DLD1 colon carcinoma cells before (A) and after 2 hour treatment with TNF-related apoptosis-inducing ligand (TRAIL) (B).
DLD1 cells were seeded in an 8-chamber glass slide at a density of 2×10^4 cells/cm^2 in DMEM containing 10% FBS and allowed to attach overnight. Fluorescent images of the plated cells were acquired using an Olympus FV1000 confocal microscope equipped with an onstage incubation chamber. TRAIL was added to the cells in a 0.5 mL volume of fresh medium at a concentration of 50 ng/mL. Time-lapse microscopy was then immediately initiated with confocal images acquired at a rate of one image every 10 minutes. The cells were maintained at 37° C. in 5% CO2 for the duration of the experiment. An excitation wavelength of 405 nm and an emission wavelength range of 425 to 475 nm were used to detect the cleaved product of AMC-M808. Fluorescence intensity over time was measured in a representative region-of-interest in each 10-minute image acquired to determine the rate of caspase activity.

[2] = system: caspases; settings: cell cultures containing 23% apoptotic cells; cited from earlier work

| cleavage by caspase-3 after induction of apoptosis ([1]; DLD1 cells treated with TRAIL) | rate of increase in fluorescence intensity due to AMC-M808 cleavage ([1]; DLD1 cells, after TRAIL 50 ng/mL, first hour, region of interest in 10 minute frames) | cell permeability ([1]; DLD1 colon carcinoma cells in vitro) | Molecule | uptake in cell cultures [2] |
| --- | --- | --- | --- | --- |
| cleaved by caspase-3 | 5.5 min⁻¹ | cell permeable | COc1ccccc1CC(=O)NC(C(=O)NC(CC(=O)OCc1ccccc1)C(=O)Nc1ccc2c(C)cc(=O)oc2c1)C(C)C (stereo not shown) [Compound 3] |  |
|  |  |  | radioiodinated Z-Val-Ala-DL-Asp(O-methyl)-fluoromethyl ketone [[^131I]IZ-VAD-fmk] | some increase in uptake |
